Values after ≈ are worked out from the molar mass of the structure shown.
What was measured:
Format in all cases: cell-based
[1] = test system: LOVO (human colon cancer cells); experiment: Inhibition of proliferation of tumor cell lines (MTT), LOVO; details: Homo sapiens, 72 h, read-out: IC50 value of compound for inhibition of proliferation of tumor cell lines, LOVO
Description: (§1) In this example, the inhibitory activity of compounds of the present invention against proliferation of seven human tumor cell lines and mouse B16-F10 melanoma cells was tested in vitro, and the IC50 value (50% inhibitory concentration) of compounds against each tumor cell line was calculated.
(§2) The seven human tumor cell lines are: MCF-7 (human breast cancer cells), LOVO (human colon cancer cells), A549 (human lung cancer cells), BGC-823 (human gastric cancer cells), SMMC-7721 (human liver cancer cells), K562 (human leukemia cells), and HeLa (human cervical cancer cells).
(§3) IC50 values of the compounds for A549, BGC-823, LOVO, MCF-7, SMMC-7721, HeLa, and B16-F10 cells were tested. The above cells were routinely cultured in 1640 nutrient solution containing 10% calf serum, with passage for 1 time every 2 days, and the cells in logarithmic growth phase were taken for experiments. After the A549, BGC-823, LOVO, MCF-7, SMMC-7721, HeLa and B16-F10 cells in logarithmic growth phase were subjected to 0.25% trypsin digestion, they were blown into a single cell suspension, and then the cell concentration was adjusted to about 1×10^5·mL^−1 using RPMI 1640 solution containing 10% calf serum. The cells were seeded in a 96-well culture plate at 100 μL per well, and cultured for 24 hours until the cells were attached. K562 cells were taken and centrifuged and diluted into 2×10^5·mL^−1 single cell suspension with RPMI 1640 solution containing 10% calf serum, and inoculated into a 96-well culture plate at 100 μL per well.
(§4) 100 μL of sample solution with different concentrations to be tested were added to the above 96-well plate, each concentration was added to 4 wells in parallel, and the cell control group was added with an equal volume of RPMI 1640 medium containing 10% calf serum to make a reaction volume of 200 μL. After incubating in an incubator at 37° C., 5% CO2 for 72 h, 10 μL of 5 mg·mL^−1 MTT solution was added to each well, and incubated at 37° C. for 4 h. The supernatant was carefully aspirated, 180 μL of DMSO was added to each well followed by shaking, and the absorbance (OD) value was measured at 570 nm on the microplate reader. The inhibition rate was calculated, and regression equation was established with the logarithmic value of the sample concentration and the inhibition rate (IR) to find the IC50 value of the compound against the cells to be tested. IR (%)=(1−OD value of the experimental group/OD value of the cell control group)×100%

[2] = test system: K562 (human leukemia cells); experiment: Inhibition of proliferation of tumor cell lines (MTT), K562; details: Homo sapiens, K562, 72 h, read-out: IC50 value of compound for inhibition of proliferation of tumor cell lines, K562
Description: as §1, §2, §3, §4

[3] = test system: SMMC-7721 (human liver cancer cells); experiment: Inhibition of proliferation of tumor cell lines (MTT), SMMC-7721; details: Homo sapiens, SMMC-7721, 72 h, read-out: IC50 value of compound for inhibition of proliferation of tumor cell lines, SMMC-7721
Description: as §1, §2, §3, §4

[4] = test system: MCF-7 (human breast cancer cells); experiment: Inhibition of proliferation of tumor cell lines (MTT), MCF-7; details: Homo sapiens, MCF7, MCF-7, 72 h, read-out: IC50 value of compound for inhibition of proliferation of tumor cell lines, MCF-7
Description: as §1, §2, §3, §4

[5] = test system: release of IL-8 by human keratinocytes (HaCaT); experiment: Release of IL-8 by human keratinocytes (HaCaT), IL-8 Elisa; details: Homo sapiens, HaCaT, 24 h, (Csample−Ccontrol)/Ccontrol×100%, read-out: Efficiency of compound in stimulating the release of IL-8 by HaCaT cells; for activation at 1 µg/mL: 1 μg/mL
Description: This Example investigated the effect of compound on release of IL-8 by human keratinocytes (HaCaT) and calculated the efficiency of each compound in stimulating the release of IL-8 by human keratinocytes (HaCaT).
Hacat cells were cultured in MEM+10% FBS under the conditions of 37° C., 5% CO2, and when the cells reached 80-95% fusion, they were inoculated into a 96-well culture plate (1×10^4 cells/well) at 100 μL/well, and incubated for 18-24 h. The supernatant was discarded and the cells were incubated for 3-6 h in 1% FBS medium. Different concentrations of the sample solution of compound to be tested were added to each well, and the cell control group was added with an equal volume of 1% FBS medium at 10 μL/well, and incubated for 24 h. The supernatant was taken and tested according to the operation sequence of the IL-8 Elisa kit. Calculation formula of Efficiency: Efficiency (%)=(Csample−Ccontrol)/Ccontrol×100%

[6] = test system: BGC-823 (human gastric cancer cells); experiment: Inhibition of proliferation of tumor cell lines (MTT), BGC-823; details: Homo sapiens, BGC-823, 72 h, read-out: IC50 value of compound for inhibition of proliferation of tumor cell lines, BGC-823
Description: as §1, §2, §3, §4

[7] = test system: neutrophilic granulocytes; experiment: Neutrophil oxidative burst (luminol chemiluminescence); details: Neutrophil, rat neutrophils, (Csample−Ccontrol)/Ccontrol×100%, read-out: Efficiency of compounds in stimulating neutrophil oxidative burst; for activation at 3 µg/mL: 3 μg/mL
Description: This example investigated the effect of compound on neutrophil oxidative burst and calculated the efficiency of each compound in stimulating neutrophil oxidative burst.
Blood was taken from the abdominal aorta of rat. The neutrophilic granulocytes were isolated by the operational procedure of the rat peripheral blood neutrophil isolation kit. The neutrophilic granulocytes were re-suspended by Hanks, and were plated in a 96-well white plate at 1×10^5 cells/well, 80 μL/well; 1 mM of Luminol was added at 10 μL/well; 10 μL of the sample was added to each well, and the degree of oxidative burst was evaluated by chemiluminescence. Calculation formula of Efficiency: Efficiency (%)=(Csample−Ccontrol)/Ccontrol×100%

[8] = test system: A549 (human lung cancer cells); experiment: Inhibition of proliferation of tumor cell lines (MTT), A549; details: Homo sapiens, A549, 72 h, read-out: IC50 value of compound for inhibition of proliferation of tumor cell lines, A549
Description: as §1, §2, §3, §4

[9] = test system: HeLa (human cervical cancer cells); experiment: Inhibition of proliferation of tumor cell lines (MTT), HeLa; details: Homo sapiens, 72 h, read-out: IC50 value of compound for inhibition of proliferation of tumor cell lines, HeLA
Description: as §1, §2, §3, §4

| Compound | IC50 [1] [µg/mL] | IC50 [2] [µg/mL] | IC50 [3] [µg/mL] | IC50 [4] [µg/mL] | activation at 0.1 µg/mL ([5]; 0.1 μg/mL) [%] | IC50 [6] [µg/mL] | activation at 0.1 µg/mL ([7]; 0.1 μg/mL) [%] | IC50 [8] [µg/mL] | IC50 [9] [µg/mL] | activation at 3 µg/mL [7] [%] | activation at 1 µg/mL [5] [%] |
| --- | --- | --- | --- | --- | --- | --- | --- | --- | --- | --- | --- |
| CCCCCCCCCCCC(=O)O[C@@]12C[C@@H](C)[C@]34C=C(C)[C@H](OC(=O)CCCCC)[C@@]3(O)[C@H](O)C(CO)=C[C@H](C4=O)[C@@H]1C2(C)C [3-O-hexanoyl-13-O-dodecanoyl-ingenol] | 16.5 (≈ 25.6 µM) | < 0.2 | 16.1 (≈ 25 µM) | 14 (≈ 21.7 µM) | 66 | 18.3 (≈ 28.4 µM) | 173 | 18.5 (≈ 28.7 µM) |  |  |  |
| CCCCCCCCCC(=O)O[C@@]12C[C@@H](C)[C@]34C=C(C)[C@H](O)[C@@]3(O)[C@H](O)C(CO)=C[C@H](C4=O)[C@@H]1C2(C)C [Compound 1a, 13-O-decanoyl-ingenol] | 9.77 (≈ 18.8 µM) | 0.7 (≈ 1.35 µM) | 19.5 (≈ 37.6 µM) | 13.8 (≈ 26.6 µM) |  | 15 (≈ 28.9 µM) |  | 15.1 (≈ 29.1 µM) | 29.1 (≈ 56.1 µM) | 65.2 |  |
| CCCCC/C=C/C=C/C(=O)O[C@@]12C[C@@H](C)[C@]34C=C(C)[C@H](O)[C@@]3(O)[C@H](O)C(CO)=C[C@H](C4=O)[C@@H]1C2(C)C [Compound 1b, 13-O-(2′E,4′E-decadienoyl)-ingenol] | 12.9 (≈ 25.1 µM) | 8.97 (≈ 17.4 µM) | 8.01 (≈ 15.6 µM) | 11.8 (≈ 22.9 µM) |  | 10.6 (≈ 20.6 µM) |  | 12.8 (≈ 24.9 µM) |  |  |  |
| CCCCCCCCCCCC(=O)O[C@@]12C[C@@H](C)[C@]34C=C(C)[C@H](O)[C@@]3(O)[C@H](O)C(CO)=C[C@H](C4=O)[C@@H]1C2(C)C [Compound 1c, 13-O-dodecanoyl-ingenol] | 8.97 (≈ 16.4 µM) | 5.51 (≈ 10.1 µM) | 6.49 (≈ 11.9 µM) | 6.36 (≈ 11.6 µM) |  | 6.19 (≈ 11.3 µM) |  | 11.1 (≈ 20.3 µM) | 15.1 (≈ 27.6 µM) |  |  |
| CCCCCCCCCCCC(=O)O[C@@]12C[C@@H](C)[C@]34C=C(C)[C@H](O)[C@@]3(O)[C@H](O)C(C)=C[C@H](C4=O)[C@@H]1C2(C)C [Compound 1d, 20-deoxy-13-O-dodecanoyl-ingenol] | 19.2 (≈ 36.2 µM) | 6.88 (≈ 13 µM) | 31.5 (≈ 59.4 µM) | 29.2 (≈ 55 µM) |  | 15.4 (≈ 29 µM) |  | 26.8 (≈ 50.5 µM) |  |  |  |
| CC1=C[C@]23C(=O)[C@@H](C4OC4(C)[C@@H](O)[C@]2(O)[C@H]1O)[C@H]1C(C[C@H]3C)C1(C)C (stereo partly drawn) [Compound 1e, 6,7-epoxy-20-deoxy-ingenol] | > 200 | 5.52 (≈ 15.8 µM) | > 200 | > 200 |  | > 200 |  | > 200 |  |  |  |
| CCCCCCCCCCCC(=O)O[C@@]12C[C@@H](C)[C@]34C=C(C)[C@H](O)[C@@]3(O)[C@H](O)C3(COC(=O)C(C)C(C)C)OC3[C@H](C4=O)[C@@H]1C2(C)C (stereo partly drawn) [Compound 1f, 6,7-epoxy-20-O-(2,3-dimethylbutyryl)-13-O-dodecanoyl-ingenol] |  |  |  |  |  |  |  |  | 16.8 (≈ 25.4 µM) |  |  |
| CCCCCCCCCCCC(=O)O[C@@]12C[C@@H](C)[C@]34C=C(C)[C@H](O)[C@@]3(O)[C@@H]3OC(C)(C)OCC3=C[C@H](C4=O)[C@@H]1C2(C)C [Compound 2b, 13-O-dodecanoyl-ingenol 5,20-acetonide] | 23 (≈ 39.2 µM) | 0.85 (≈ 1.45 µM) | 15.2 (≈ 25.9 µM) | 13.7 (≈ 23.3 µM) |  | 17.8 (≈ 30.3 µM) |  | 15 (≈ 25.6 µM) |  |  |  |
| CCCCCCCCCCCC(=O)O[C@@]12C[C@@H](C)[C@]34C=C(C)[C@@H]5OC(C)(C)O[C@@]53[C@H](O)C(CO)=C[C@H](C4=O)[C@@H]1C2(C)C [Compound 2c, 13-O-dodecanoyl-ingenol 3,4-acetonide] | 10.3 (≈ 17.6 µM) | 0.42 (≈ 0.716 µM) | 8.21 (≈ 14 µM) | 8.89 (≈ 15.1 µM) |  | 5.3 (≈ 9.03 µM) |  | 9.59 (≈ 16.3 µM) |  | 64.6 |  |
| C/C=C(/C)C(=O)O[C@H]1C(C)=C[C@]23C(=O)[C@@H](C=C(CO)[C@@H](O)[C@]12O)[C@@H]1C(C)(C)[C@]1(O)C[C@H]3C [Compound 3, 3-O-angeloyl-13-hydroxy-ingenol] |  |  |  |  |  |  |  |  |  | 65 | 23.8 |
| CCCCCC(=O)O[C@@]12C[C@@H](C)[C@]34C=C(C)[C@H](O)[C@@]3(O)[C@H](O)C(CO)=C[C@H](C4=O)[C@@H]1C2(C)C [Compound 6, 13-O-n-hexanoyl-ingenol] |  |  |  |  |  |  |  |  |  | 52.2 |  |
| CCCCCCCCCC(=O)O[C@@]12C[C@@H](C)[C@]34C=C(C)[C@H](O)[C@@]3(O)[C@H](O)C(COC(=O)C(C)C(C)C)=C[C@H](C4=O)[C@@H]1C2(C)C (stereo partly drawn) [Compound 14, 20-O-(2,3-dimethylbutyryl)-13-O-decanoyl-ingenol] |  |  |  |  |  |  |  |  |  | 62.8 | 22.6 |
| C/C=C(/C)C(=O)OCC1=C[C@@H]2C(=O)[C@]3(C=C(C)[C@H](OC(=O)/C(C)=C\C)[C@@]3(O)[C@@H]1O)[C@H](C)C[C@]1(OC(=O)CCCCCCCCCCC)[C@H]2C1(C)C [Compound 15a, 3,20-O-diangeloyl-13-O-dodecanoyl-ingenol] | > 100 | 3.22 (≈ 4.53 µM) | 26.9 (≈ 37.8 µM) | > 100 |  | > 100 |  | > 100 |  |  |  |

— patent US11753363B2, “13-oxidized ingenol derivative and use thereof” (Tianjin Pharmaceutical Da Ren Tang Group Corp., Ltd. …, priority 2017, dated 2023)
